How the values were obtained:
Experiment in all cases: Kinase panel
Type in all cases: biochemical
Settings in all cases: read-out: % Residual Activity
ALK2(h) = biological target: T1, ALK2(h) (Homo sapiens, UniProt Q04771)
T1 construct: purchased Eurofins (KinaseProfiler)
Summary of the method: (§1)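 Kinome-wide selectivity of rilpivirine was profiled in a commercial kinase panel. Radioisotope-based assays run at each kinase's ATP Km gave IC50 values, which were converted to Ki with the Cheng–Prusoff equation.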

ATR/ATRIP(h) = biological target: T2, ATR/ATRIP(h) (Homo sapiens, UniProt Q13535)
T2 construct: purchased Eurofins (KinaseProfiler)
Summary of the method: as §1

Arg(m) = biological target: T3, Arg(m) (Mus musculus, UniProt Q4JIM5)
T3 construct: purchased Eurofins (KinaseProfiler)
Summary of the method: as §1

Axl(h) = biological target: T4, Axl(h) (Homo sapiens, UniProt P30530)
T4 construct: purchased Eurofins (KinaseProfiler)
Summary of the method: as §1

B-Raf(V599E)(h) = biological target: T5, B-Raf(V599E)(h) (Homo sapiens, UniProt P15056, V600E)
T5 construct: purchased Eurofins (KinaseProfiler)
T5 sequence (P15056 417-766 V600E limits assumed): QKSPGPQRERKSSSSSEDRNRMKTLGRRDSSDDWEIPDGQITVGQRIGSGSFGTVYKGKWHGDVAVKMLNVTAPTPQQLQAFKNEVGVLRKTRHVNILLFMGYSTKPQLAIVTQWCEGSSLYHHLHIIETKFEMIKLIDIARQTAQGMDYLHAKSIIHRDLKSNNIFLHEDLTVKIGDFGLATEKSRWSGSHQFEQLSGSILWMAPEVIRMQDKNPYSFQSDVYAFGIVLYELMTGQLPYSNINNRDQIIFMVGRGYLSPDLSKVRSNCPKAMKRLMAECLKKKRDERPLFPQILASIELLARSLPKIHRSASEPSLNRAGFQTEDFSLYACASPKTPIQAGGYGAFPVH
Summary of the method: as §1

BrSK2(h) = biological target: T6, BrSK2(h) (Homo sapiens, UniProt Q8IWQ3)
T6 construct: purchased Eurofins (KinaseProfiler)
Summary of the method: as §1

CDK1/cyclinB(h) = biological target: T7, CDK1/cyclinB(h) (Homo sapiens, UniProt P06493)
T7 construct: purchased Eurofins (KinaseProfiler)
Summary of the method: as §1

CDK4/cyclinD3(h) = biological target: T8, CDK4/cyclinD3(h) (Homo sapiens, UniProt P11802)
T8 construct: purchased Eurofins (KinaseProfiler)
Summary of the method: as §1

ChaK1(h) = biological target: T9, ChaK1(h) (Homo sapiens, UniProt Q96QT4)
T9 construct: purchased Eurofins (KinaseProfiler)
Summary of the method: as §1

DAPK2(h) = biological target: T10, DAPK2(h) (Homo sapiens, UniProt Q9UIK4)
T10 construct: purchased Eurofins (KinaseProfiler)
Summary of the method: as §1

DNA-PK(h) = biological target: T11, DNA-PK(h) (Homo sapiens, UniProt P78527)
T11 construct: purchased Eurofins (KinaseProfiler)
Summary of the method: as §1

EphA2(h) = biological target: T12, EphA2(h) (Homo sapiens, UniProt P29317)
T12 construct: purchased Eurofins (KinaseProfiler)
Summary of the method: as §1

FGFR1(V561M)(h) = biological target: T13, FGFR1(V561M)(h) (Homo sapiens, UniProt P11362, V561M)
T13 construct: purchased Eurofins (KinaseProfiler)
Summary of the method: as §1

Flt3(D835Y)(h) = biological target: T14, Flt3(D835Y)(h) (Homo sapiens, UniProt P36888, D835Y)
T14 construct: purchased Eurofins (KinaseProfiler)
Summary of the method: as §1

HPK1(h) = biological target: T15, HPK1(h) (Homo sapiens, UniProt Q92918)
T15 construct: purchased Eurofins (KinaseProfiler)
Summary of the method: as §1

JAK3(h) = biological target: T16, JAK3(h) (Homo sapiens, UniProt P52333)
T16 construct: purchased Eurofins (KinaseProfiler)
T16 sequence (P52333 whole entry): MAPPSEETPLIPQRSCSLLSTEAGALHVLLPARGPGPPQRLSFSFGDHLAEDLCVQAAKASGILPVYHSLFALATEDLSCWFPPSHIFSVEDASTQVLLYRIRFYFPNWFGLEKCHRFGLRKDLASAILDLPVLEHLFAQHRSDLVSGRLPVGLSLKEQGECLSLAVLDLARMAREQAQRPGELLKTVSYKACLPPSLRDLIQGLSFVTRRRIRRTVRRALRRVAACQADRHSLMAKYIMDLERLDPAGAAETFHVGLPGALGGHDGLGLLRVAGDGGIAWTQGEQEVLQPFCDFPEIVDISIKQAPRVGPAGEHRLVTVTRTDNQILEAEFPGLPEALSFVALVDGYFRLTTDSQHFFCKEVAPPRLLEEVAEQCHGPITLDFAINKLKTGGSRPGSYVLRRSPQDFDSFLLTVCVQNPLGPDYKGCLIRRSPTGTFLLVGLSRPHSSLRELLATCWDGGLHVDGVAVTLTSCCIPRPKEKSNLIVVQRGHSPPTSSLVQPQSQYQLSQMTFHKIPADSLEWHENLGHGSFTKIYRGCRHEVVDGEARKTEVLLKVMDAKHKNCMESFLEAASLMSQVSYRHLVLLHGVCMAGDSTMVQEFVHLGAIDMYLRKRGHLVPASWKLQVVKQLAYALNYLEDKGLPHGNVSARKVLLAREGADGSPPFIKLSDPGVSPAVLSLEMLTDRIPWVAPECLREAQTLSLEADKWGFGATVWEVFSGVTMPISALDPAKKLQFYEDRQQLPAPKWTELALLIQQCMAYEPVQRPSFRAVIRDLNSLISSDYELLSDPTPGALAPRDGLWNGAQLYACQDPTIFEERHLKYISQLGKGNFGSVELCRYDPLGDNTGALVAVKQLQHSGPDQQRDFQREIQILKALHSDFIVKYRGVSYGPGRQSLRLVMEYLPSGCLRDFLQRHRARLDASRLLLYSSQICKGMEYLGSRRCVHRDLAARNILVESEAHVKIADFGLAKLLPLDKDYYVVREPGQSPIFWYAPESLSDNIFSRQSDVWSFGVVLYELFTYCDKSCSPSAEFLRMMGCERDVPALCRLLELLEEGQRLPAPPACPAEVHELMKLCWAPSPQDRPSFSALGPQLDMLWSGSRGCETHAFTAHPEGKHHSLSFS
Summary of the method: as §1

LIMK1(h) = biological target: T17, LIMK1(h) (Homo sapiens, UniProt P53667)
T17 construct: purchased Eurofins (KinaseProfiler)
Summary of the method: as §1

Lck(h) = biological target: T18, Lck(h) (Homo sapiens, UniProt P06239)
T18 construct: purchased Eurofins (KinaseProfiler)
T18 sequence (P06239 whole entry): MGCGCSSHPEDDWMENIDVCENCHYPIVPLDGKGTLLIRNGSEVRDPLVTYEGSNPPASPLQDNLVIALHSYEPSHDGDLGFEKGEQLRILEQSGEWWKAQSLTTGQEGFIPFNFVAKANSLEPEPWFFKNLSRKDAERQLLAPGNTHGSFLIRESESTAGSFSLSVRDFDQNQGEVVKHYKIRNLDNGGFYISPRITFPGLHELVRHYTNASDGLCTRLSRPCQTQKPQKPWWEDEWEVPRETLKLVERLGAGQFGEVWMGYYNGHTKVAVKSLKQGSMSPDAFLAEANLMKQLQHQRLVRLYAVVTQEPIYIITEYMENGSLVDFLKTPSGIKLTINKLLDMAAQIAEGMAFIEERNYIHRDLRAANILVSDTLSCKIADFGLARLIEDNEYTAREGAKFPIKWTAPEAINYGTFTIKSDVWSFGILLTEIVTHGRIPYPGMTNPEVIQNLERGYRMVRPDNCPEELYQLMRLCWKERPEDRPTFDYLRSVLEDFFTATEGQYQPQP
Summary of the method: as §1

MAPK2(m) = biological target: T19, MAPK2(m) (Mus musculus, UniProt P63085)
T19 construct: purchased Eurofins (KinaseProfiler)
Summary of the method: as §1

MEK2(h) = biological target: T20, MEK2(h) (Homo sapiens, UniProt P36507)
T20 construct: purchased Eurofins (KinaseProfiler)
Summary of the method: as §1

MOK(h) = biological target: T21, MOK(h) (Homo sapiens, UniProt Q9UQ07)
T21 construct: purchased Eurofins (KinaseProfiler)
T21 sequence (Q9UQ07 whole entry): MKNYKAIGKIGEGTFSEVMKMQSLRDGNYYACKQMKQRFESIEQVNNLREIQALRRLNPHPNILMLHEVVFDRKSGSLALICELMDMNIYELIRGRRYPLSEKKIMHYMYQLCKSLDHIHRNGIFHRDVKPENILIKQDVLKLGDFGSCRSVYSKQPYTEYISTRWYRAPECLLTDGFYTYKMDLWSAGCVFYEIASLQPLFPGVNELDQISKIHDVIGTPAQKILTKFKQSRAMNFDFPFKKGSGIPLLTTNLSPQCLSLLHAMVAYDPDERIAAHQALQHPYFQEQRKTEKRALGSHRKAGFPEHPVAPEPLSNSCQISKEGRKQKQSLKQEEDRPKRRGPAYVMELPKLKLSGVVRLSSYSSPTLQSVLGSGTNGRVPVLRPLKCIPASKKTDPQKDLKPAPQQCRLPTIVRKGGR
Summary of the method: as §1

NEK11(h) = biological target: T22, NEK11(h) (Homo sapiens, UniProt Q8NG66)
T22 construct: purchased Eurofins (KinaseProfiler)
Summary of the method: as §1

OSR1(h) = biological target: T23, OSR1(h) (Homo sapiens, UniProt O95747)
T23 construct: purchased Eurofins (KinaseProfiler)
Summary of the method: as §1

PAR-1Bα(h) = biological target: T24, PAR-1Bα(h) (Homo sapiens, UniProt Q7KZI7)
T24 construct: purchased Eurofins (KinaseProfiler)
T24 sequence (Q7KZI7 1-725 isoform Q7KZI7-4): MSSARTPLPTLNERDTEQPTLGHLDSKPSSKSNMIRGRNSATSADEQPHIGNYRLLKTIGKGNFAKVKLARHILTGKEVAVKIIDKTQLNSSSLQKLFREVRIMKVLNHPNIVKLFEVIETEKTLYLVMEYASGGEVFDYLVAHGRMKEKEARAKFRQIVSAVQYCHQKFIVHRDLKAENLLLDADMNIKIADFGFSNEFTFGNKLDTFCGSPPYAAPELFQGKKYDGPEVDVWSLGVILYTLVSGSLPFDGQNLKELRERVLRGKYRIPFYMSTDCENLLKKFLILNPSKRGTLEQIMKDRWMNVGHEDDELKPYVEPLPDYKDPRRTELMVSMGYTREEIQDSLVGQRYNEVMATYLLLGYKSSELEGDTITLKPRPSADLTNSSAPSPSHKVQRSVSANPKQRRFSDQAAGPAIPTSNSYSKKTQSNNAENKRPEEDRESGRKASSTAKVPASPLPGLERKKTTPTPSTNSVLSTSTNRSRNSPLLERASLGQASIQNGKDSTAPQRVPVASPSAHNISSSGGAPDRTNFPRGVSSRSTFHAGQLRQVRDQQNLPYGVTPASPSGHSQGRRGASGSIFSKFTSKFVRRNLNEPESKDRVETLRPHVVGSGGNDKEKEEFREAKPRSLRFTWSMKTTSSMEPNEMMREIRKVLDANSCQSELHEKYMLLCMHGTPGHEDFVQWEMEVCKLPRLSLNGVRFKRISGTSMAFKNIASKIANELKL
Summary of the method: as §1

PDHK4(h) = biological target: T25, PDHK4(h) (Homo sapiens, UniProt Q16654)
T25 construct: purchased Eurofins (KinaseProfiler)
T25 sequence (Q16654 whole entry): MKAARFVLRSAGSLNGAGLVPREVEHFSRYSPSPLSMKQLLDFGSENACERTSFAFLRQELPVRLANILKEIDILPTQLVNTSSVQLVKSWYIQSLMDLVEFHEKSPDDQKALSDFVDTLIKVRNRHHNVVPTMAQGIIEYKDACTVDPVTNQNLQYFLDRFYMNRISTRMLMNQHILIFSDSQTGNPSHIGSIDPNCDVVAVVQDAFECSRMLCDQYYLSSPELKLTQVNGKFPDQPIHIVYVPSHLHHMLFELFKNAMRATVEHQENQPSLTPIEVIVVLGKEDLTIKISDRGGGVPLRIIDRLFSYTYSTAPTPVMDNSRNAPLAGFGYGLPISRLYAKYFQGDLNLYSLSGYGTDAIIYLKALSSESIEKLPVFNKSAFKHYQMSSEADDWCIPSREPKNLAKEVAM
Summary of the method: as §1

PDK1(h) = biological target: T26, PDK1(h) (Homo sapiens, UniProt O15530)
T26 construct: purchased Eurofins (KinaseProfiler)
Summary of the method: as §1

PIP5K1g(h) = PIP5K1g(h) (Homo sapiens, UniProt O60331)
PIP5K1g(h), sequence (O60331 whole entry): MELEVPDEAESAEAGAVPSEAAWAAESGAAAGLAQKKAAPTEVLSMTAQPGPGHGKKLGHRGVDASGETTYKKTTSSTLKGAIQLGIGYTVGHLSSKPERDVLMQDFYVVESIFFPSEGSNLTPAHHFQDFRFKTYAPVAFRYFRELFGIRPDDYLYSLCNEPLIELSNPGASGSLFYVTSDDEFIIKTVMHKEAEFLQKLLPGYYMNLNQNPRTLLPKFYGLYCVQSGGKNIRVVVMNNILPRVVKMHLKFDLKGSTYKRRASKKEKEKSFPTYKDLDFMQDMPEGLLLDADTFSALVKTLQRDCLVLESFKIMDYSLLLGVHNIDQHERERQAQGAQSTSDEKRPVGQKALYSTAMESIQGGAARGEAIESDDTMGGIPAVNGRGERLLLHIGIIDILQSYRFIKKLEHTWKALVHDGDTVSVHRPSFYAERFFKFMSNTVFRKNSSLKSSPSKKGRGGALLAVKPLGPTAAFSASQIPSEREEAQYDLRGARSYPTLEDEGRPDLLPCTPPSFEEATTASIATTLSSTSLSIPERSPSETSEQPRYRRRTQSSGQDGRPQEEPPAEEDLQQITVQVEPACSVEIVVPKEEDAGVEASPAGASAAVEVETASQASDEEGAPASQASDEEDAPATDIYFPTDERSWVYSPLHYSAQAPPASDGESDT
Summary of the method: as §1

Pim-2(h) = biological target: T27, Pim-2(h) (Homo sapiens, UniProt Q9P1W9)
T27 construct: purchased Eurofins (KinaseProfiler)
T27 sequence (Q9P1W9 whole entry): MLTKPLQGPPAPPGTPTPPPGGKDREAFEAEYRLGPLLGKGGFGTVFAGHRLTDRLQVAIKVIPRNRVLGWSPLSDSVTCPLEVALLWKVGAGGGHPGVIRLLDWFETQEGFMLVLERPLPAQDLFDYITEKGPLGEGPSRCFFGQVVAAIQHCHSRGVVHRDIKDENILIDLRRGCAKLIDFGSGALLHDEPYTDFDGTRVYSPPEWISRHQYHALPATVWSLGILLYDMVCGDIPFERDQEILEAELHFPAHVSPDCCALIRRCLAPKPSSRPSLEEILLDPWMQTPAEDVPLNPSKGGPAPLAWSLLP
Summary of the method: as §1

Ron(h) = biological target: T28, Ron(h) (Homo sapiens, UniProt Q04912)
T28 construct: purchased Eurofins (KinaseProfiler)
Summary of the method: as §1

Rsk1(r) = biological target: T29, Rsk1(r) (Rattus norvegicus, UniProt Q63531)
T29 construct: purchased Eurofins (KinaseProfiler)
Summary of the method: as §1

Rsk3(h) = biological target: T30, Rsk3(h) (Homo sapiens, UniProt Q15349)
T30 construct: purchased Eurofins (KinaseProfiler)
Summary of the method: as §1

SAPK2a(T106M)(h) = biological target: T31, SAPK2a(T106M)(h) (Homo sapiens, UniProt Q16539, T106M)
T31 construct: purchased Eurofins (KinaseProfiler)
Summary of the method: as §1

SRMS(h) = biological target: T32, SRMS(h) (Homo sapiens, UniProt Q9H3Y6)
T32 construct: purchased Eurofins (KinaseProfiler)
Summary of the method: as §1

SRPK1(h) = biological target: T33, SRPK1(h) (Homo sapiens, UniProt Q96SB4)
T33 construct: purchased Eurofins (KinaseProfiler)
Summary of the method: as §1

TAF1L(h) = biological target: T34, TAF1L(h) (Homo sapiens, UniProt Q8IZX4)
T34 construct: purchased Eurofins (KinaseProfiler)
Summary of the method: as §1

Tie2(Y897S)(h) = biological target: T35, Tie2(Y897S)(h) (Homo sapiens, UniProt Q02763, Y897S)
T35 construct: purchased Eurofins (KinaseProfiler)
Summary of the method: as §1

c-RAF(h) = biological target: T36, c-RAF(h) (Homo sapiens, UniProt P04049)
T36 construct: purchased Eurofins (KinaseProfiler)
Summary of the method: as §1

cKit(V560G)(h) = biological target: T37, cKit(V560G)(h) (Homo sapiens, UniProt P10721, V560G)
T37 construct: purchased Eurofins (KinaseProfiler)
Summary of the method: as §1

T1 sequence (Q04771 21-509): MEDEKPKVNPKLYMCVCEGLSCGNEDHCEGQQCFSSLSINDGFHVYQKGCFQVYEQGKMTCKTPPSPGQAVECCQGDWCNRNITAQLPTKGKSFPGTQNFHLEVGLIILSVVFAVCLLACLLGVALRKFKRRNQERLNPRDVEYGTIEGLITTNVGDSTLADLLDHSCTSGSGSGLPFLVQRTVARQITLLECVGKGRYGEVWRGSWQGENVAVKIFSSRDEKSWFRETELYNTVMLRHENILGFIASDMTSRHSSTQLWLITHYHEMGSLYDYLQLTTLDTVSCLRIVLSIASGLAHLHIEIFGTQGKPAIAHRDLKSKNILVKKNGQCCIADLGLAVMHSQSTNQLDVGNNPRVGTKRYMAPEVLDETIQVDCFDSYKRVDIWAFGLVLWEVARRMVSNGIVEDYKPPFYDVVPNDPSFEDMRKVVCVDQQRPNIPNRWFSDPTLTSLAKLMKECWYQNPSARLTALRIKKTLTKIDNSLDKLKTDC

Cc1cc(/C=C/C#N)cc(C)c1Nc1ccnc(Nc2ccc(C#N)cc2)n1 [rilpivirine, (E)-4-((4-((4-(2-cyanoethenyl)-2,6-dimethylphenyl)amino)pyrimidin-2-yl)amino)benzonitrile]
remaining activity at 1 µM (ALK2(h)): 91% | remaining activity at 1 µM (ATR/ATRIP(h)): 117% | remaining activity at 1 µM (Arg(m)): 48% | remaining activity at 1 µM (Axl(h)): 98% | remaining activity at 1 µM (B-Raf(V599E)(h)): 95% | remaining activity at 1 µM (BrSK2(h)): 80% | remaining activity at 1 µM (CDK1/cyclinB(h)): 105% | remaining activity at 1 µM (CDK4/cyclinD3(h)): 101% | remaining activity at 1 µM (ChaK1(h)): 94% | remaining activity at 1 µM (DAPK2(h)): 80% | remaining activity at 1 µM (DNA-PK(h)): 95% | remaining activity at 1 µM (EphA2(h)): 72% | remaining activity at 1 µM (FGFR1(V561M)(h)): 97% | remaining activity at 1 µM (Flt3(D835Y)(h)): 94% | remaining activity at 1 µM (HPK1(h)): 62% | remaining activity at 1 µM (JAK3(h)): 68% | remaining activity at 1 µM (LIMK1(h)): 47% | remaining activity at 1 µM (Lck(h)): 33% | remaining activity at 1 µM (MAPK2(m)): 92% | remaining activity at 1 µM (MEK2(h)): 92% | remaining activity at 1 µM (MOK(h)): 92% | remaining activity at 1 µM (NEK11(h)): 92% | remaining activity at 1 µM (OSR1(h)): 102% | remaining activity at 1 µM (PAR-1Bα(h)): 104% | remaining activity at 1 µM (PDHK4(h)): 94% | remaining activity at 1 µM (PDK1(h)): 85% | remaining activity at 1 µM (PIP5K1g(h)): 76% | remaining activity at 1 µM (Pim-2(h)): 56% | remaining activity at 1 µM (Ron(h)): 85% | remaining activity at 1 µM (Rsk1(r)): 90% | remaining activity at 1 µM (Rsk3(h)): 86% | remaining activity at 1 µM (SAPK2a(T106M)(h)): 90% | remaining activity at 1 µM (SRMS(h)): 55% | remaining activity at 1 µM (SRPK1(h)): 84% | remaining activity at 1 µM (TAF1L(h)): 55% | remaining activity at 1 µM (Tie2(Y897S)(h)): 96% | remaining activity at 1 µM (c-RAF(h)): 91% | remaining activity at 1 µM (cKit(V560G)(h)): 74%

Reference: article PMC9954146, “Anti-Leukaemic Activity of Rilpivirine Is Mediated by Aurora A Kinase Inhibition” (Cancers, 2023)
